Test results as given in ChEMBL document CHEMBL1201862, “PubChem BioAssay data set” (2004).
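Results reflect a 48-hour exposure of cells in 96-well plates to compound at five concentrations. GI50 marks 50% less growth.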 The source made the active and inactive calls. Rule as the data show it: active = GI50 up to about 1.1 µM and inactive = higher.

What was measured:
Assay in all cases: DTP human tumour cell line panel, 48 h
SR = test system: SR
RPMI-8226 = test system: RPMI-8226
UO-31 = test system: UO-31
OVCAR-8 = test system: OVCAR-8
OVCAR-5 = test system: OVCAR-5
Malme-3M = test system: Malme-3M
IGROV-1 = test system: IGROV-1
COLO 205 = test system: COLO 205
OVCAR-4 = test system: OVCAR-4
SF-539 = test system: SF-539
PC-3 = test system: PC-3
M14 = test system: M14
A549 = test system: A549
EKVX = test system: EKVX
A498 = test system: A498
CAKI-1 = test system: CAKI-1
MDA-N = test system: MDA-N
NCI/ADR-RES = test system: NCI/ADR-RES
RXF 393 = test system: RXF 393
HCC 2998 = test system: HCC 2998
MOLT-4 = test system: MOLT-4
UACC-257 = test system: UACC-257
SF-268 = test system: SF-268
NCI-H23 = test system: NCI-H23
KM12 = test system: KM12
HCT-15 = test system: HCT-15
SK-OV-3 = test system: SK-OV-3
786-0 = test system: 786-0
K562 = test system: K562
OVCAR-3 = test system: OVCAR-3
NCI-H460 = test system: NCI-H460
MDA-MB-231 = test system: MDA-MB-231
SF-295 = test system: SF-295
ACHN = test system: ACHN
SK-MEL-5 = test system: SK-MEL-5
BT-549 = test system: BT-549
NCI-H522 = test system: NCI-H522
U-251 = test system: U-251
UACC-62 = test system: UACC-62
CCRF-CEM = test system: CCRF-CEM
HCT-116 = test system: HCT-116
MCF7 = test system: MCF7
SN12C = test system: SN12C
Hs-578T = test system: Hs-578T
SK-MEL-28 = test system: SK-MEL-28
TK-10 = test system: TK-10
SK-MEL-2 = test system: SK-MEL-2
T47D = test system: T47D
HOP-92 = test system: HOP-92
HL-60 = test system: HL-60
SNB-19 = test system: SNB-19
HOP-62 = test system: HOP-62
NCI-H226 = test system: NCI-H226
DU-145 = test system: DU-145
HT-29 = test system: HT-29
MDA-MB-435 = test system: MDA-MB-435
SNB-75 = test system: SNB-75
SW-620 = test system: SW-620

In the case of `COC12C=CC(C=C1C#N)CC2.COC12C=CC(CC1)CC2=O` (stereo unspecified), the GI50 (SR) is reported as > 100 µM (inactive), the GI50 (RPMI-8226) is reported as > 100 µM (inactive) and the GI50 (UO-31) is reported as > 100 µM (inactive). The GI50 (OVCAR-8) was > 100 µM (inactive), the GI50 (OVCAR-5) was > 100 µM (inactive) and the GI50 (Malme-3M) was > 100 µM (inactive). For the same molecule, the GI50 (IGROV-1) was > 100 µM (inactive), the GI50 (COLO 205) was > 100 µM (inactive) and the GI50 (OVCAR-4) was > 100 µM (inactive). For the same molecule, the GI50 (SF-539) was > 100 µM (inactive), the GI50 (PC-3) was > 100 µM (inactive) and the GI50 (M14) was > 100 µM (inactive). The GI50 (A549) was > 100 µM (inactive), the GI50 (EKVX) was > 100 µM (inactive) and the GI50 (A498) was > 100 µM (inactive). For the same molecule, the GI50 (CAKI-1) was > 100 µM (inactive), the GI50 (MDA-N) was > 100 µM (inactive) and the GI50 (NCI/ADR-RES) was > 100 µM (inactive). For the same molecule, the GI50 (RXF 393) was > 100 µM (inactive), the GI50 (HCC 2998) was > 100 µM (inactive) and the GI50 (MOLT-4) was > 100 µM (inactive). The GI50 (UACC-257) was > 100 µM (inactive), the GI50 (SF-268) was > 100 µM (inactive) and the GI50 (NCI-H23) was > 100 µM (inactive). The GI50 (KM12) was > 100 µM (inactive), the GI50 (HCT-15) was over 100 µM and the GI50 (SK-OV-3) was > 100 µM (inactive). For the same molecule, the GI50 (786-0) was > 100 µM (inactive), the GI50 (K562) was > 100 µM (inactive) and the GI50 (OVCAR-3) was > 100 µM (inactive). For the same molecule, the GI50 (NCI-H460) was > 100 µM (inactive), the GI50 (MDA-MB-231) was > 100 µM (inactive) and the GI50 (SF-295) was > 100 µM (inactive). For the same molecule, the GI50 (ACHN) was > 100 µM (inactive), the GI50 (SK-MEL-5) was > 100 µM (inactive) and the GI50 (BT-549) was > 100 µM (inactive). For the same molecule, the GI50 (NCI-H522) was > 100 µM (inactive), the GI50 (U-251) was > 100 µM (inactive) and the GI50 (UACC-62) was > 100 µM (inactive). The GI50 (CCRF-CEM) was > 100 µM (inactive), the GI50 (HCT-116) was > 100 µM (inactive) and the GI50 (MCF7) was > 100 µM (inactive). For the same molecule, the GI50 (SN12C) was > 100 µM (inactive), the GI50 (Hs-578T) was > 100 µM (inactive) and the GI50 (SK-MEL-28) was > 100 µM (inactive). For the same molecule, the GI50 (TK-10) was > 100 µM (inactive), the GI50 (SK-MEL-2) was > 100 µM (inactive) and the GI50 (T47D) was > 100 µM (inactive). For the same molecule, the GI50 (HOP-92) was > 100 µM (inactive), the GI50 (HL-60) was > 100 µM (inactive) and the GI50 (SNB-19) was > 100 µM (inactive). For the same molecule, the GI50 (HOP-62) was > 100 µM (inactive), the GI50 (NCI-H226) was > 100 µM (inactive) and the GI50 (DU-145) was > 100 µM (inactive). The GI50 (HT-29) was > 100 µM (inactive), the GI50 (MDA-MB-435) was > 100 µM (inactive) and the GI50 (SNB-75) was 67.8 µM (inactive). The GI50 (SW-620) was > 100 µM (inactive).

With `NCC[Se][Se]CCN` the GI50 (SR) was 10.1 µM (inactive), the GI50 (RPMI-8226) was 12.9 µM (inactive) and the GI50 (UO-31) was 4.42 µM (inactive). The GI50 (OVCAR-8) was 10.6 µM (inactive), the GI50 (OVCAR-5) was 5.56 µM (inactive) and the GI50 (Malme-3M) was 11.9 µM (inactive). The GI50 (IGROV-1) was 9.23 µM (inactive), the GI50 (COLO 205) was 4.06 µM (inactive) and the GI50 (OVCAR-4) was 11.8 µM (inactive). The GI50 (SF-539) was 10.6 µM (inactive), the GI50 (PC-3) was 10.9 µM (inactive) and the GI50 (M14) was 3.83 µM (inactive). For the same molecule, the GI50 (A549) was 6.03 µM (inactive), the GI50 (EKVX) was 5.38 µM (inactive) and the GI50 (A498) was 9.18 µM (inactive). For the same molecule, the GI50 (CAKI-1) was 10.7 µM (inactive), the GI50 (MDA-N) was 10.9 µM (inactive) and the GI50 (NCI/ADR-RES) was 9.31 µM (inactive). For the same molecule, the GI50 (RXF 393) was 15.6 µM (inactive), the GI50 (HCC 2998) was 11.9 µM (inactive) and the GI50 (MOLT-4) was 5.25 µM (inactive). The GI50 (UACC-257) was 7.06 µM (inactive), the GI50 (SF-268) was 16 µM (inactive) and the GI50 (NCI-H23) was 15 µM (inactive). For the same molecule, the GI50 (KM12) was 8.05 µM (inactive), the GI50 (HCT-15) was 6.24 µM and the GI50 (SK-OV-3) was 8.15 µM (inactive). For the same molecule, the GI50 (786-0) was 14 µM (inactive), the GI50 (K562) was 16.6 µM (inactive) and the GI50 (OVCAR-3) was 13.9 µM (inactive). For the same molecule, the GI50 (NCI-H460) was 6.4 µM (inactive), the GI50 (MDA-MB-231) was 12.8 µM (inactive) and the GI50 (SF-295) was 3.2 µM (inactive). For the same molecule, the GI50 (ACHN) was 10 µM (inactive), the GI50 (SK-MEL-5) was 5.66 µM (inactive) and the GI50 (BT-549) was 14.4 µM (inactive). For the same molecule, the GI50 (NCI-H522) was 10.4 µM (inactive), the GI50 (U-251) was 7.41 µM (inactive) and the GI50 (UACC-62) was 17.3 µM (inactive). The GI50 (CCRF-CEM) was 5.12 µM (inactive), the GI50 (HCT-116) was 4.28 µM (inactive) and the GI50 (MCF7) was 8.79 µM (inactive). The GI50 (SN12C) was 6.76 µM (inactive), the GI50 (Hs-578T) was 12.4 µM (inactive) and the GI50 (SK-MEL-28) was 13.3 µM (inactive). The GI50 (TK-10) was 13.3 µM (inactive), the GI50 (SK-MEL-2) was 7.57 µM (inactive) and the GI50 (T47D) was 5.58 µM (inactive). The GI50 (HOP-92) was 19.3 µM (inactive), the GI50 (HL-60) was 1.8 µM (inactive) and the GI50 (SNB-19) was 8.47 µM (inactive). For the same molecule, the GI50 (HOP-62) was 8.67 µM (inactive), the GI50 (NCI-H226) was 11 µM (inactive) and the GI50 (DU-145) was 11.6 µM (inactive). For the same molecule, the GI50 (HT-29) was 10 µM (inactive), the GI50 (MDA-MB-435) was 12.3 µM (inactive) and the GI50 (SNB-75) was 10.6 µM (inactive). The GI50 (SW-620) was 10.7 µM (inactive).
